From patent US7601501B2, “Controlling osteogenesis by inhibition of osteogenic suppressors” (The Scripps Research Institute, priority 2006, dated 2009)
“Also recorded” adds a separate entry of the source.

Tests used:
[1] = test system: human mesenchymal stem cells (hMSCs); test: Compound treatment: adipogenic differentiation / cell fate switch of hMSCs; format: cell-based; conditions: for differentiation of hMSCs into mature adipocytes: combined treatment with dexamethasone; for adipogenic differentiation of hMSCs promoted by compound: especially in the presence of dexamethasone (DEX); for cell fate switch from osteogenic to adipogenic: hMSCs treated with the OS media
Procedure: Cells were rinsed with PBS twice, fixed in 10% formalin solution for 20 minutes, rinsed with PBS twice and dH2O once, washed with propylene glycol for 5 minutes, and stained with Oil red in propylene glycol (I2722A, Newcomer Supply) for 30 minutes. Cells were then washed with 85% propylene glycol for 5 minutes, rinsed with dH2O 3 times and preserved in 50% glycerol.
(§1) 8-CPT-cAMP, Na (cat# 116812), 5-Iodotubercidin (cat# 407900), Prostaglandin E2 (PGE2, cat# 538904), SB 202190 (cat# 559388) and U0126 (cat# 662005) were purchased from Calbiochem; N6,2′-O-Dibutyryl-cAMP (cat# D0260-5MG), forskolin (cat# F6886), ascorbic acid 2-phosphate (cat# 49752-10G), β-glycerophosphate (G-6251), dexamethasone (D8893), 3-isobutyl-1-methylxanthine (IBMX, I5879) and Insulin (I 9278) were purchased from Sigma/Aldrich/Fluka.
(§2) Since the targeted genes are all positively involved in intracellular cAMP signaling, we tested the effect of two compounds of opposing function on cAMP production on osteogenic differentiation of hMSCs, ADK inhibitor 5-iodotubercidin and ADCY activator forskolin (Cottam, H. B. et al., J Med Chem 36:3424-3430 (1993); de Souza, N. J. et al., Med Res Rev 3:201-219 (1983)). […] ATP has been shown as a ligand for P2RY11 receptor (Communi et al., 1997). […] The present observations are consistent with the conclusion that […] in hMSCs, and vice versa.

[2] = test system: human mesenchymal stem cells (hMSCs); test: Compound treatment: OS-induced osteogenic differentiation of hMSCs (ALP / alizarin red staining); format: cell-based; conditions: for osteogenic effect of the OS media on hMSCs: compound combined with OS treatment, ALP and/or alizarin red staining
Procedure: as §1, §2

[3] = test system: human mesenchymal stem cells (hMSCs); test: Alizarin red staining for calcium phosphate deposits (ECM mineralization, bone cell maturation); format: cell-based; conditions: for intensity of alizarin red staining (bone cell maturation), 3+9OS: OS started three days after siRNA transfection and continued for 9 days
Procedure: Cells were rinsed with PBS twice, stained in alizarin red solution (cat# vw3611-2, VWR) for 8 minutes at room temperature, washed with PBS again, fixed in 10% formalin solution (cat# HT-5014, Sigma) for 20 minutes, then rinsed with water and air dried.
Bone cell maturation is accompanied by extracellular matrix (ECM) mineralization (John Bilezikian et al., Principles of bone biology, Vol 1, 2nd edn: Academic Press) (2002)). […] […] These observations are consistent with the conclusion that the targeted genes of the ten effective hit siRNAs not only play inhibitory roles in osteogenic specification of hMSCs, but also in bone cell maturation. […] Furthermore, in osteoporotic patients, the number of adipocytes was increased in the marrow, implying a change of cell fate disposition from osteoblast lineage to adipocyte lineage (Justesen, J. et al., Biogerontology 2:165-171 (2001); Meunier, P. et al., Clin Orthop Relat Res 80:147-154 (1971)). We therefore examined the effect of our hit siRNAs on adipogenic differentiation of hMSCs by combined treatment with an adipogenic inducing cocktail (100 μg/ml IBMX, 1 μM DEX and 10 μg/ml insulin).

CREB = test: Western blot of phospho-CREB in transfected hMSCs; format: cell-based, human; conditions: 3 days after transfection, compared to siCon treated or untreated
Procedure: Cell lyses buffer contains 20 mM Tris pH8.0, 1 mM EDTA, 150 mM NaCl and 0.5% NP-40, and before usage, protease inhibitor cocktail (Cat# p8340, Sigma, 1:100 dilution) and phosphatase inhibitor cocktail 2 (Cat# p5726, sigma, 1:100 dilution) were added. Proteins (60 μg/well) were separated in 12% Novex Tris-Glycine gel (Cat# EC6008 box, Invitrogen) and transferred to Nitrocellulose membrane (Cat# LC2001, Invitrogen) using the XCell II blot module system (Cat# EI9051, Invitrogen). The membrane was blocked in 5% milk/PBST for 1 hour at room temperature, incubated over night at 4 degree with primary antibody, washed 3 times with PBST (0.05% Tween 20 in PBS), followed by one hour incubation with secondary antibody in 5% milk/PBST and 3 times wash with PBST at room temperature. For antibody against pCREB however, PBST was substituted with PBS in all steps except for the last one. Antibody-bound proteins were detected utilizing ECL Western blotting detection reagent (Amersham Biosciences).
Anti-phospho-CREB was purchased from Upstate Biotechnology (cat# 06-519); Anti-phospho-p38 was purchased from Cell signaling technology (cat# 9910).
To find out whether CREB (cAMP Responding Element Binding protein), a common downstream effector of cAMP signaling pathway, is involved in mediating cAMP signaling controlled differentiation of hMSCs, we checked the expression level of the active form of CREB proteins in cells 3 days after siP2RY11, siADK, siGNAS, siSLC12a2 or siCon transfection. […] To further examine the role of CREB in osteogenesis and adipogenesis, a synthetic 24-mer CRE decoy oligonucleotide that can compete with endogenous CRE enhancers for binding proteins was transfected into hMSCs (Park, Y. G. et al., J Biol Chem 274:1573-1580 (1999)), which were then subjected to the treatment of osteogenic or adipogenic induction media.

Nc1ncnc2c1nc(Sc1ccc(Cl)cc1)n2[C@@H]1O[C@@H]2COP(=O)(O)O[C@H]2[C@H]1O [8-CPT-cAMP]
differentiation of hMSCs into mature adipocytes [1]: sufficient to differentiate hMSCs into mature adipocytes | adipogenic differentiation of hMSCs promoted by compound [1]: promoted hMSCs to undergo adipogenic differentiation | cell fate switch from osteogenic to adipogenic [1]: could switch cell fate commitment from osteogenic to adipogenic | cell fate switch from osteogenic to adipogenic ([1]; listed as CPT-cAMP): could switch cell fate determination from osteogenic to adipogenic differentiation

Nc1ncnc2c1ncn2[C@@H]1O[C@H](COP(=O)(O)OP(=O)(O)OP(=O)(O)O)[C@@H](O)[C@H]1O [ATP]
number of cells undergoing adipogenic differentiation ([1]; dosage dependent manner): slightly increases | siP2RY11 and siSLC12a2 induced osteogenesis in combination with OS (ALP staining) ([2]; OS and ATP added on the third day after siRNA transfection, continued for a week): dosage-dependent inhibitory effect | osteogenic effect of the OS media on hMSCs [2]: inhibited; also recorded: dosage-dependent inhibitory effect

CCCC(=O)Nc1ncnc2c1ncn2[C@@H]1O[C@@H]2COP(=O)(O)O[C@H]2[C@H]1OC(=O)CCC [DB-cAMP, N6,2′-dibutyryl-cAMP]
differentiation of hMSCs into mature adipocytes [1]: sufficient to differentiate hMSCs into mature adipocytes | adipogenic differentiation of hMSCs promoted by compound [1]: promoted hMSCs to undergo adipogenic differentiation

CC(C)Cn1c(=O)n(C)c(=O)c2[nH]cnc21 [IBMX, 3-isobutyl-1-methylxanthine]
adipogenic differentiation of hMSCs promoted by compound [1]: promoted hMSCs to undergo adipogenic differentiation | cell fate switch from osteogenic to adipogenic [1]: could switch cell fate determination from osteogenic to adipogenic differentiation

COc1cccc(-c2cc(=O)c3ccccc3o2)c1N [PD98059]
osteogenic effect of the OS media on hMSCs [2]: inhibited the osteogenic inducing effect of OS

CCCCC[C@H](O)/C=C/[C@H]1[C@H](O)CC(=O)[C@@H]1C/C=C\CCCC(=O)O [PGE2, Prostaglandin E2]
cell fate switch from osteogenic to adipogenic [1]: could switch cell fate determination from osteogenic to adipogenic differentiation

Oc1ccc(-c2nc(-c3ccncc3)c(-c3ccc(F)cc3)[nH]2)cc1 [SB202190]
osteogenic effect of the OS media on hMSCs [2]: inhibited the osteogenic inducing effect of OS

CCCAGGUCUCCGAUGAACU (siRNA; listed as RNA, chemistry not fully specified) [siBCL212, siRNA targeting BCL2-like 2]
intensity of alizarin red staining (bone cell maturation), 3+9OS [3]: modest enhancement

CCCGAAAACAUUGCUAGCA (siRNA; listed as RNA, chemistry not fully specified) [siGBDR1, siRNA targeting putative glialblastoma cell differentiation-related]
intensity of alizarin red staining (bone cell maturation), 3+9OS [3]: dramatically enhanced

CCUCUUCGUGGCUACAUCU (siRNA; listed as RNA, chemistry not fully specified) [siSLC12a2, siRNA targeting solute carrier family 12, member 2]
level of pCREB protein (Western blot) (CREB): increased | intensity of alizarin red staining (bone cell maturation), 3+9OS [3]: dramatically enhanced

GCCACACAAAGCAGCAACA (siRNA; listed as RNA, chemistry not fully specified) [siADK, siRNA targeting adenosine kinase]
level of pCREB protein (Western blot) (CREB): increased | intensity of alizarin red staining (bone cell maturation), 3+9OS [3]: dramatically enhanced | intensity of alizarin red staining, sequential siRNA then OS ([3]; siRNA initial 2-4 days followed by OS (2+6OS, 3+5OS, 4+4OS), vs siCon): clearly enhanced the intensity of alizarin red staining; also recorded: enhancing effect

GGAGAUCAACAAGCAUUCA (siRNA; listed as RNA, chemistry not fully specified) [siADCY8, siRNA targeting adenylate cyclase 8]
intensity of alizarin red staining (bone cell maturation), 3+9OS [3]: weak enhancement

UCGAAGAUUGAGGACUACU (siRNA; listed as RNA, chemistry not fully specified) [siGNAS, siRNA targeting GNAS complex locus]
level of pCREB protein (Western blot) (CREB): increased | intensity of alizarin red staining (bone cell maturation), 3+9OS [3]: dramatically enhanced

UGCCAAAGAGGAUGUACAU (siRNA; listed as RNA, chemistry not fully specified) [siTBX3, siRNA targeting T-box 3 (ulnar mammary syndrome)]
intensity of alizarin red staining (bone cell maturation), 3+9OS [3]: no significant effect

UGCGAGCCAAGAUGGACAA (siRNA; listed as RNA, chemistry not fully specified) [siKCNT1, siRNA targeting potassium channel, subfamily T, member 1]
intensity of alizarin red staining (bone cell maturation), 3+9OS [3]: dramatically enhanced

UGCGGGUGCUCAACGUGGA (siRNA; listed as RNA, chemistry not fully specified) [siP2RY11, siRNA targeting purinergic receptor P2Y, G-protein coupled, 11]
level of pCREB protein (Western blot) (CREB): increased | intensity of alizarin red staining (bone cell maturation), 3+9OS [3]: dramatically enhanced

UGUGCUACACAGUCAUUAC (siRNA; listed as RNA, chemistry not fully specified) [siBIRC4, siRNA targeting baculoviral IAP repeat-containing 4]
intensity of alizarin red staining (bone cell maturation), 3+9OS [3]: weak enhancement
